Experimental data as given in US11211249B2, “Herbal extracts and flavor systems for oral products and methods of making the same” (Sensient Flavors LLC, priority 2008, dated 2021).

Assay: Flavor release from chewing gum, mechanical mastication device with artificial saliva
Type: physicochemical
Details: chewing gum with 2% flavor system
Method: To test if adequate flavor is released from chewing gum, the chewing gums made in Example 5 were tested using a mechanical instrument to simulate human mastication of chewing gum, which can be found in Kleber et al. A mastication device designed for the evaluation of chewing gum is set forth in Journal of Dental Research, 1981, 109-114, which is incorporated herein in its entirety. Artificial saliva (15 ml) was placed in the reservoir, and the thermostatically controlled heating element was turned on to maintain the saliva and gum at body temperature for proper chewing consistency. One stick of test chewing gum (approximately 3 grams with 2% flavor system added) was placed in the warmed chamber and the artificial saliva was exposed to the chewing gum for 1 minute under chewing simulation conditions. All the artificial saliva (15 ml) was removed as quickly as possible with a pipette, delivered immediately into a glass bottle and sealed. The saliva was replaced with a fresh 15 ml aliquot, the chewing conditions restarted and the gum samples were treated for another minute. […] Two markers, Marker 1, thymol, and Marker 2, menthol, were selected to monitor flavor release based on quantity and antimicrobial efficiency. […] It was estimated that enough flavor was released during the first 15-20 minutes to have antimicrobial activity based on the quantity released and the MIC results.

## Cc1ccc(C(C)C)c(O)c1 [Marker 1, thymol]
  release course over time of chewing: released constantly for the first 10 minutes and afterward decreases
